Measurements from patent publication US20230277602A1, “COMBINATION THERAPY FOR TREATING OR PREVENTING CANCER” (4D Pharma Research Limited, priority 2018, published 2023).

System: immature dendritic cells
Assay: Cytokine production in immature dendritic cells
Type: cell-based
Settings: MRX518 10^7/ml, LPS 100 ng/ml, compared to the negative control, FIGS. 4a-d
Method: A monocyte population was isolated from peripheral blood mononuclear cells (PBMCs). The monocyte cells were subsequently differentiated into immature dendritic cells. The immature dendritic cells were plated out at 200,000 cells/well and incubated with MRX518 at a final concentration of 10^7/ml, with the optional addition of LPS at a final concentration of 100 ng/ml. The negative control involved incubating the cells with RPMI media alone and positive controls incubated the cells with LPS at a final concentration of 100 ng/ml. The cytokine content of the cells was then analysed.

lipopolysaccharide [LPS]
level of IL-6: increase
level of TNF-α: increase
